Active and inactive are the calls of the source. Rule as the data show it, for most assays here: actives have a measured EC50 and inactives only a lower limit.
Columns and labels:
[1] = target: Beta-galactosidase (Escherichia coli, UniProt Q8VNN2); format: functional
[2] = target: T1, Kappa-type opioid receptor (Homo sapiens, UniProt P41145); format: functional
[3] = target: T1, Kappa-type opioid receptor; format: functional; remark: listed apart in the source
[4] = target: T2, Protein RecA (Mycobacterium tuberculosis, UniProt P9WHJ3); experiment: Fluorescence Cell-Free Homogeneous Dose Retest to Identify Inhibitors of RecA-Intein Splicing Activity. [Related pubchem assays (depositor defined):AID2097, AID2223, AID489010, AID492950]; format: functional
T2 sequence (P9WHJ3 whole entry): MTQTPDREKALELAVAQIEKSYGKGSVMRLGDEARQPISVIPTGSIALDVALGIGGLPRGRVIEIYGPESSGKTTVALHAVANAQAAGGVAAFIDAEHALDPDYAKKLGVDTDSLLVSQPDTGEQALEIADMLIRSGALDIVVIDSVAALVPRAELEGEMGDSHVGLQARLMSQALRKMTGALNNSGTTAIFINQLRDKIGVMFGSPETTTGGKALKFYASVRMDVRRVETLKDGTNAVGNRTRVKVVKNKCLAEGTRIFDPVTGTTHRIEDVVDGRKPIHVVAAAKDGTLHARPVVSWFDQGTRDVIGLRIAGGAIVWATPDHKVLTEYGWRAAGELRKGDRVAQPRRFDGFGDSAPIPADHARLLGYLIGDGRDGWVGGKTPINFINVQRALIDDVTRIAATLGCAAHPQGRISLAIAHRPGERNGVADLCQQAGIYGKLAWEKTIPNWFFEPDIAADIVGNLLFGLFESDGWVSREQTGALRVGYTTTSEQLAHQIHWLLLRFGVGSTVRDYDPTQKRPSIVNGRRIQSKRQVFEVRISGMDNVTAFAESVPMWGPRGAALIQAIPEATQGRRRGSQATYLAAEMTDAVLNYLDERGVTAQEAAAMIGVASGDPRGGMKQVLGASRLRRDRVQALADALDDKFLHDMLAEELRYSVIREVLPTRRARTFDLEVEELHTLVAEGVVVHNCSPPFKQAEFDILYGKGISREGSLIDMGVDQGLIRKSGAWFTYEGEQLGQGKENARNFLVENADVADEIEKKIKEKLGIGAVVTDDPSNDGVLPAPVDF

[5] = target: T3, Microphthalmia-associated transcription factor (Homo sapiens, UniProt O75030); experiment: TRPM1 promoter luciferase signal decrease, dose response, MITF inhibitor project, cell-based, SK-MEL-5, cherry-picked, set 3 (AID 493073); format: functional
T3 sequence (O75030 whole entry): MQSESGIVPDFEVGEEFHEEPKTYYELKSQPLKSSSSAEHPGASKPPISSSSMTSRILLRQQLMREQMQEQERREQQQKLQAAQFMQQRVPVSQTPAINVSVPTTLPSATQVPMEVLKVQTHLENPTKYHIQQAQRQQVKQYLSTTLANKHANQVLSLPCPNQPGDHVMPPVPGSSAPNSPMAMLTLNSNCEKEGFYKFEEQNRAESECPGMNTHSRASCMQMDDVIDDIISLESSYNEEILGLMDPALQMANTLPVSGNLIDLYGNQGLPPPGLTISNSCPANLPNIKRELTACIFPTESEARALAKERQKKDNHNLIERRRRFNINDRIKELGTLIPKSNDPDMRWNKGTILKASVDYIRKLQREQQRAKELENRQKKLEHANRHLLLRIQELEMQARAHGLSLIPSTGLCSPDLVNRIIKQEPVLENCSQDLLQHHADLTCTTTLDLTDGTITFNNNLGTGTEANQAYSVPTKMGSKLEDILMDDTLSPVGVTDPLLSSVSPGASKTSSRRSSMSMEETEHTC

[6] = target: T4, Replicative DNA helicase DnaB (Mycobacterium tuberculosis, UniProt P9WMR3); experiment: DnaB intein splicing inhibitors, dose response, biochemical, cell-free fluorescence (AID 449749); format: functional
T4 sequence (P9WMR3 whole entry): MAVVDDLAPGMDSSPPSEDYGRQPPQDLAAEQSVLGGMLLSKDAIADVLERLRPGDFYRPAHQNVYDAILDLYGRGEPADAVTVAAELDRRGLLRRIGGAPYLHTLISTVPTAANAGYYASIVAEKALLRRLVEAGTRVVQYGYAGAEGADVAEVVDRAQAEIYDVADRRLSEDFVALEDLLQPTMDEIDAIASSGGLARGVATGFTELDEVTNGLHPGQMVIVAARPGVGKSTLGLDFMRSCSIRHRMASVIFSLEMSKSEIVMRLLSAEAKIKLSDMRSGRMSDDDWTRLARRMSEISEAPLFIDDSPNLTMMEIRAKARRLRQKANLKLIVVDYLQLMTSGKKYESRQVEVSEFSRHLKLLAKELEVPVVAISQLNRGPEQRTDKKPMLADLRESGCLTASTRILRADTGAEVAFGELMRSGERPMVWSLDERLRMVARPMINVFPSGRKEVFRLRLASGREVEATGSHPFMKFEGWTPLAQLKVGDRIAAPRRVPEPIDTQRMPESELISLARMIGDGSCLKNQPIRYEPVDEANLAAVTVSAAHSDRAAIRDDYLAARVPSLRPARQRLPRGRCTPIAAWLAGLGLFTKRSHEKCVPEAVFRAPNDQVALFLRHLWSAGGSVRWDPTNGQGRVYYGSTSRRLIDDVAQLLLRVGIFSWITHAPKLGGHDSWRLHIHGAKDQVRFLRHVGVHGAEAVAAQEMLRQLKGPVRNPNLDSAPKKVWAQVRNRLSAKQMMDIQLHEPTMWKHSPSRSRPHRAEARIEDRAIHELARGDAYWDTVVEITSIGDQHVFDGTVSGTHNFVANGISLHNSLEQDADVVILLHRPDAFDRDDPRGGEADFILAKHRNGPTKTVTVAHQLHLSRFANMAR

[7] = cytotoxicity toward DRD oncogenic fibroblasts, dose response, cell-based, non-viral oncogenic, luminescence (AID 1934); format: functional; conditions: Homo sapiens
[8] = C. albicans growth with fluconazole, confirmation, fluorescence, retest (AID 2467); format: functional, cell-based
[9] = system: BJ; experiment: cells; format: functional, cell-based; conditions: Homo sapiens
[10] = system: BJ; experiment: cytotoxicity toward BJ-TERT-LT-ST fibroblasts, dose response, cell-based, RAS-independent, luminescence (AID 1935); format: functional; conditions: Homo sapiens;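 also: BJ fibroblasts immortalized with TERT plus LT and ST oncogenes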
[11] = system: BJ; experiment: cytotoxicity toward BJ-TERT fibroblasts, dose response, cell-based, RAS-independent, luminescence (AID 1933); format: functional; conditions: Homo sapiens
[12] = NIH-3T3 fibroblast cytotoxicity, dose response, cytotoxicity control, cell-based, fluorescence, Alamar Blue, secondary assay (AID 2327); format: functional;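 also: NIH-3T3 mouse fibroblasts cultured with fluconazole at 8 µg/mL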
[13] = inhibitors of SNCA 5'UTR-driven reporter translation, confirmation, H4 neuroglioma cells, luminescence (AID 1988); format: functional, cell-based
[14] = target: T5, Hexokinase HKDC1 (Homo sapiens, UniProt Q2TB90); experiment: HKDC1 hexokinase inhibitors, dose response, biochemical, W721R variant (AID 504729); format: functional
T5 sequence (Q2TB90 whole entry): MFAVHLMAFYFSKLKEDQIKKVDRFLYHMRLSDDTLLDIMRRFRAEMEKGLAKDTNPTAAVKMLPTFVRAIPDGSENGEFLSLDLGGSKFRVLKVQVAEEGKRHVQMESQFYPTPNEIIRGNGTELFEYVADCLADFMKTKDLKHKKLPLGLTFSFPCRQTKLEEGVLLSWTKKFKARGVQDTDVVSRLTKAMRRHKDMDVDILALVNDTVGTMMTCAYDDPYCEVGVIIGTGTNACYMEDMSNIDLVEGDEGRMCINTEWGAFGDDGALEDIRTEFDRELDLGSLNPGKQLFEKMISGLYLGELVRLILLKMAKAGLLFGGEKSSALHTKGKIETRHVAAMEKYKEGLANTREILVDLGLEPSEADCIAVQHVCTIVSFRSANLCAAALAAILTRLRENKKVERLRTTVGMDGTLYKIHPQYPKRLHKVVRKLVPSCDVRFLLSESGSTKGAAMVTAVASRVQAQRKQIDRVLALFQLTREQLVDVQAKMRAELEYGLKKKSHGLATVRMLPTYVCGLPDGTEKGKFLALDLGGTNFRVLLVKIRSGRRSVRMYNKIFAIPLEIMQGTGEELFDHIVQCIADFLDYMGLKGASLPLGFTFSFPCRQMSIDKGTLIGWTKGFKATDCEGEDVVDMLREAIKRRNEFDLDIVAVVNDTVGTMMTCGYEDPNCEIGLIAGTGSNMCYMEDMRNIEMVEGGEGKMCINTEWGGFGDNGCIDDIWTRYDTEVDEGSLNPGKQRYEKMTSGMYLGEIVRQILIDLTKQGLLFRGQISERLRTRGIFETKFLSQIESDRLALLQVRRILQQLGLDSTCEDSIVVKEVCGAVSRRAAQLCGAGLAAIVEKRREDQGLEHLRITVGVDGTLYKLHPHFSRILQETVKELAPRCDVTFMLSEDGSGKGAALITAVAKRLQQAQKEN

[15] = inhibitors of firefly luciferase expression or activity, dose response, H4 neuroglioma cells, luminescence (AID 1990); format: functional, cell-based
[16] = Luminescence Cell-Based Dose Response HTS to Identify Inhibitors of 5'UTR Stem-Loop Driven Prion Protein mRNA Translation in H4 Neuroglioblastoma Cells. [Related pubchem assays: 1827 (Project Summary), 1813 (Primary HTS)]; format: functional
[17] = system: P388/ADR; experiment: cells; format: functional; conditions: Mus musculus
[18] = target: Cytochrome P450 3A4 (Homo sapiens, UniProt P08684); conditions: Potency;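 also: confirmatory qHTS run detecting inhibitors and substrates of CYP3A4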
Cytochrome P450 3A4, sequence (P08684 whole entry): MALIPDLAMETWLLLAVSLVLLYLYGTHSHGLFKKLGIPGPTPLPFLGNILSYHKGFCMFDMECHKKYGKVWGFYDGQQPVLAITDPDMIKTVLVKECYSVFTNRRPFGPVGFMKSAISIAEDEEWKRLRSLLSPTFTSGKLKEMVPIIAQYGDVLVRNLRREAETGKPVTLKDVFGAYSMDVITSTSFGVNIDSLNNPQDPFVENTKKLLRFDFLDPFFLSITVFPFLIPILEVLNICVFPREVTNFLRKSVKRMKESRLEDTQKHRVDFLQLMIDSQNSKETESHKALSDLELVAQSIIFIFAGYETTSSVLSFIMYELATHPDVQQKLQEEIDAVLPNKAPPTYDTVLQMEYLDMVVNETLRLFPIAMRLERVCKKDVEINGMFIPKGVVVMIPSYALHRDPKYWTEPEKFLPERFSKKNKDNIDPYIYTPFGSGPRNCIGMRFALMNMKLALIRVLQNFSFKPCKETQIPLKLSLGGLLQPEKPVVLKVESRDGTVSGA

[19] = system: SN12K1; experiment: cells; format: functional; conditions: Homo sapiens
[20] = system: P388; experiment: cells; format: functional; conditions: Mus musculus

T1 sequence (P41145 whole entry): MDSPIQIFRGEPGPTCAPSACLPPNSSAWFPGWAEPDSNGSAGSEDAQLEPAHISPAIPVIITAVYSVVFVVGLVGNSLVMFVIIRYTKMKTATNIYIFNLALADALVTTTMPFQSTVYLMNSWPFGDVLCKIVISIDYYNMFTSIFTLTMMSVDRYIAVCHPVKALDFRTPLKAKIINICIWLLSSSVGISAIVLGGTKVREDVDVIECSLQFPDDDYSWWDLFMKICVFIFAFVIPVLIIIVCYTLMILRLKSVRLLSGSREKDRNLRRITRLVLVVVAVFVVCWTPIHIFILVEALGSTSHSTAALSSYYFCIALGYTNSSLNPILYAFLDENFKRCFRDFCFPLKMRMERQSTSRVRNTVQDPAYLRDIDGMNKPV
Beta-galactosidase, sequence (Q8VNN2 whole entry): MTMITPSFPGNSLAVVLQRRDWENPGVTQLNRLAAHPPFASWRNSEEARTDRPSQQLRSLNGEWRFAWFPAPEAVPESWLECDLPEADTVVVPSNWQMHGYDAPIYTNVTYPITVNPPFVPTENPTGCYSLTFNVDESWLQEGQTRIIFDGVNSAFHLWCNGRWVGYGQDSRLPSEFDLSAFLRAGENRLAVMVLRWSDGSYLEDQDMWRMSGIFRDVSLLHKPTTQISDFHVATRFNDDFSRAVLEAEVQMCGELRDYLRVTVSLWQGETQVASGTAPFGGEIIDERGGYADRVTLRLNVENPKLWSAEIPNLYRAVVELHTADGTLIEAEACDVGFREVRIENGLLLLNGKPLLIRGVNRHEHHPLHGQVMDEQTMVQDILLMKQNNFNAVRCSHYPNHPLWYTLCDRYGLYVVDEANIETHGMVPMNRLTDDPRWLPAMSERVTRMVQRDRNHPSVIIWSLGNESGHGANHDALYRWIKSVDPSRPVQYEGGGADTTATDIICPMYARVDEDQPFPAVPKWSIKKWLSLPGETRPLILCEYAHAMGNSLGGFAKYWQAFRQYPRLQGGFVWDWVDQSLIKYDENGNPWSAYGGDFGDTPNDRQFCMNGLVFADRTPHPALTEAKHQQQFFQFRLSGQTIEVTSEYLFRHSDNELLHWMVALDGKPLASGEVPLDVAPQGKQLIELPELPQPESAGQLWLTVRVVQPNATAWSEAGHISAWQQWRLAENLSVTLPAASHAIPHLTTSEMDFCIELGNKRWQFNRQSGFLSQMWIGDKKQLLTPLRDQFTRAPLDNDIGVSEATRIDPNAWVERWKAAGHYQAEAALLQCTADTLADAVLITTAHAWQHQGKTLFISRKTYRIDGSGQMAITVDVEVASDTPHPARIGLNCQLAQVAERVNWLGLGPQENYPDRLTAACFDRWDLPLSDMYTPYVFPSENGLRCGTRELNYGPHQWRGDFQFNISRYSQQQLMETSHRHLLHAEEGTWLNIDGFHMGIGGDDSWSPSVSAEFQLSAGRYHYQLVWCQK

Row | Compound | EC50 [1] | IC50 [2] [µM] | IC50 [3] | EC50 [4] | AC50 [5] | AC50 [6] | EC50 [7] | EC50 [8] | EC50 [9] | EC50 [10] | EC50 [11] | EC50 [12] | EC50 [13] | IC50 [14] | EC50 [15] | EC50 [16] | GI50 [17] | AC50 [18] | GI50 [19] | GI50 [20]
1 | Oc1ccc2c3c1O[C@H]1c4oc5ccccc5c4C[C@@]4(O)[C@@H](C2)N(CC2CC2)CC[C@]314 | > 31.5 µM (inactive) | < 0.5 | 0.699 µM (active) | – | – | – | – | – | – | – | – | – | – | – | – | – | – | – | – | –
2 | CCOc1ccc(-n2c(C)cc(C(=O)CCl)c2C)cc1 | – | – | – | 11.7 µM (active) | 4.59 µM (active) | 8.96 µM (active) | 9.56 µM (active) | > 38 µM (not active) | 4.84 µM (active) | 9.67 µM (inconclusive) | 4.29 µM (active) | 4.21 µM (inconclusive) | > 120 µM (not active) | 47.7 µM (inactive) | > 120 µM (not active) | 15 µM (active) | – | – | – | –
3 | COC1=CC(=O)C=C(OC)C1=O [2,6-DIMETHOXYQUINONE] | – | – | – | – | – | – | – | – | – | – | – | – | – | 2.49 µM (active) | – | – | 0.457 µM (active) | 25.1 µM (inconclusive) | 7.38 µM (inactive) | 0.401 µM (active)

Reference: ChEMBL document CHEMBL1201862, “PubChem BioAssay data set” (2004)
